Measured values reported in patent publication US11612607B2, “Fenoldopam topical formulations for treating skin disorders” (TARO PHARMACEUTICAL INDUSTRIES LTD., priority 2016, dated 2023).

Tests used:
Assay type in all cases: in vivo, BALB/c mice
TNF-α [1] = assay: First animal study: TNF-α in skin homogenates (ELISA)
Text: (§1) The effect of topical compositions on the treatment of psoriasis has been tested in two animal studies. In both studies, typical features of psoriasis, namely erythema, scaling, and skin thickness, were induced by the application of 5% w/w imiquimod (IMQ) cream on the dorsal skin of BALB/c mice over a period of 6 consecutive days. Animals that developed psoriasis-like symptoms were used for studying the efficacy of the fenoldopam topical compositions. In the fenoldopam-treated groups, the animals received imiquimod only for the first two days. From the third day of the study, the animals received imiquimod and fenoldopam for the next four days. First Animal Study: The different treatment groups of mice used in the first animal study were as following: the SHAM group in the study represents mice which were shaven on the dorsal side without any treatment; negative control group represents the typical psoriatic model induced by imiquimod 5% (IMQ); positive control group represents the mice induced with psoriasis by imiquimod and then treated with the marketed steroid betamethasone valerate (IMQ BMV); and treatment groups represent the mice induced with psoriasis by imiquimod and then treated with a topical dose of 1 mg/cm^2 fenoldopam using different compositions of fenoldopam, such as solution (IMQ FD), water-washable ointment (IMQ WB 45/55), or anhydrous gel (IMQ AG BHT) compositions.
(§2) An IMQ-induced psoriasis model reproduces biochemical and histopathological parameters characteristic of human psoriatic lesions. Topical application of the IMQ cream increased levels of cytokines such as IL-23, TNF-α, and IL-17 in the treated skin tissues. The skin homogenates obtained from mice of different groups were analyzed using ELISA for quantification of IL-17, IL-23, and TNF-α, levels as the selected interleukins are the typical inflammatory markers of psoriasis. […] The effect of fenoldopam was as effective as the reference topical treatment with the marketed steroid.

IL-22 = assay: Second animal study: IL-22 in skin homogenates (ELISA)
Text: as §1, with “In” for “The effect of topical compositions on the treatment of psoriasis has been tested in two animal studies. In”
(§3) The second animal study was conducted in order to test additional topical compositions of fenoldopam with different strengths (0.01%, 0.1% and 1% of fenoldopam), as well as the effect of systemic administration of fenoldopam. […]
(§4) The skin homogenates obtained from mice of the different groups were analyzed using ELISA for quantification of IL-17, IL-23, TNF-α, and IL-22 levels, as the selected interleukins are the typical inflammatory markers of psoriasis.

[2] = system: IMQ-induced psoriasis model; assay: First animal study: histopathology (H&E) of dorsal skin; settings: vs. IMQ-treated group
Text: (§5) The effect of topical compositions on the treatment of psoriasis has been tested in two animal studies. In both studies, typical features of psoriasis, namely erythema, scaling, and skin thickness, were induced by the application of 5% w/w imiquimod (IMQ) cream on the dorsal skin of BALB/c mice over a period of 6 consecutive days. Animals that developed psoriasis-like symptoms were used for studying the efficacy of the fenoldopam topical compositions. In the fenoldopam-treated groups, the animals received imiquimod only for the first two days. From the third day of the study, the animals received imiquimod and fenoldopam for the next four days. […]

[3] = system: IMQ-induced psoriasis model; assay: Second animal study: IMQ-induced psoriasis, phenotype and PASI scoring; settings: compared to negative control
Text: as §1, with “In” for “The effect of topical compositions on the treatment of psoriasis has been tested in two animal studies. In”
as §3

IL-17 [4] = assay: First animal study: IL-17 in skin homogenates (ELISA)
Text: as §1, §2

IL-23 [5] = assay: First animal study: IL-23 in skin homogenates (ELISA)
Text: as §1, §2

TNF-α [6] = assay: Second animal study: TNF-α in skin homogenates (ELISA)
Text: as §1, with “In” for “The effect of topical compositions on the treatment of psoriasis has been tested in two animal studies. In”
as §3, §4

[7] = system: IMQ-induced psoriasis model; assay: First animal study: IMQ-induced psoriasis, phenotype and PASI scoring
Text: as §5
Psoriatic area and severity index (PASI) scoring has been analyzed to determine the efficacy of the fenoldopam compositions of the present invention with appropriate controls as part of the study. FIG. 11 depicts PASI scoring including body weight, erythema, scaling, and skin thickness determined during the study. […]

IL-23 [8] = assay: Second animal study: IL-23 in skin homogenates (ELISA)
Text: as §1, with “In” for “The effect of topical compositions on the treatment of psoriasis has been tested in two animal studies. In”
The second animal study was conducted in order to test additional topical compositions of fenoldopam with different strengths (0.01%, 0.1% and 1% of fenoldopam), as well as the effect of systemic administration of fenoldopam. The different groups of mice used in the second animal study were as following: the SHAM group in the study represents mice which were shaven on the dorsal side without any treatment; negative control group represents the typical psoriatic model induced by imiquimod 5% (IMQ); positive control group represents the mice induced with psoriasis by imiquimod and then treated with the marketed steroid betamethasone valerate (IMQ BMV); and treatment groups represent the mice induced with psoriasis by imiquimod and then treated with a topical dose of various compositions of fenoldopam: water-washable base (IMQ_WB45/55-0.01%, IMQ_WB45/55-0.1%, IMQ_WB45/55-1% or IMQ_WB45/55_1% No citric acid), or oleaginous ointment composition (IMQ_OB 0.01%, IMQ_OB 0.1% or IMQ_OB […]). An additional group of mice received systemic Fenoldopam by intraperitoneal injection (IMQ_FD_IP).
as §4

[9] = system: IMQ-induced psoriasis model; assay: Second animal study: histopathology (H&E) of skin; settings: skin collected on the 7th day
Text: as §1, with “In both” for “The effect of topical compositions on the treatment of psoriasis has been tested in two animal studies. In both”, “BHT) compositions. […]” for “BHT) compositions.”

IL-17 [10] = assay: Second animal study: IL-17 in skin homogenates (ELISA)
Text: as §1, with “In” for “The effect of topical compositions on the treatment of psoriasis has been tested in two animal studies. In”
as §3, §4

With `CCCCC(=O)O[C@]1(C(=O)CO)[C@@H](C)C[C@H]2[C@@H]3CCC4=CC(=O)C=C[C@]4(C)[C@@]3(F)[C@@H](O)C[C@@]21C` [BMV, betamethasone valerate] the “Decrease in TNF-α levels in comparison with the IMQ group” value (TNF-α [1]; first animal study) was 2.75 fold, the “Level of TNF-α” value (TNF-α [1]; vs. IMQ group) was “inhibited” and the “Fold difference in IL-22 levels (↓, vs. IMQ)” value (IL-22; listed as IMQ_BMV) was 1.55 ↓ fold. For the same compound, the “Fold difference in IL-22 levels (↓, vs. IMQ)” value (IL-22; listed as positive control) was 1.55 fold, the “Histopathology (H&E): psoriatic features” value [2] was “decline in the intensity of psoriatic features” and the “Psoriasis symptoms (phenotypic images: erythema, scaling, skin thickness)” value [3] was “remission of the psoriasis symptoms”. The “Psoriasis symptoms (phenotypic images: erythema, scaling, skin thickness)” value ([3]; listed as IMQ_BMV) was “amelioration of psoriatic symptoms”, the “Decrease in IL-17 levels in comparison with the IMQ group” value (IL-17 [4]; first animal study) was 2.74 fold and the “Level of IL-17” value (IL-17 [4]; vs. IMQ group) was “inhibited”. The “Decrease in IL-23 levels in comparison with the IMQ group” value (IL-23 [5]; first animal study) was 2.02 fold, the “Level of IL-23” value (IL-23 [5]; vs. IMQ group) was “inhibited” and the “Fold difference in TNF-α levels (↓, vs. IMQ)” value (TNF-α [6]; listed as IMQ_BMV) was 2.21 ↓ fold. For the same compound, the “Fold difference in TNF-α levels (↓, vs. IMQ)” value (TNF-α [6]; listed as positive control) was 2.21 fold, the “Psoriatic symptoms (phenotypic images of dorsal skin)” value ([7]; IMQ-treated mice, topical treatment for four days, 1 mg/cm^2 fenoldopam) was “amelioration of psoriatic symptoms” and the “PASI scores over the treatment period” value ([7]; scale of 0-4, vs. negative control) was “declines in PASI scores”. For the same compound, the “Decline in IL-23 levels compared to the negative control” value (IL-23 [8]; listed as IMQ_BMV) was “decline in IL-23 levels”, the “Fold difference in IL-23 levels (↓, vs. IMQ)” value (IL-23 [8]; listed as IMQ_BMV) was 1.57 ↓ fold and the “Fold difference in IL-23 levels (↓, vs. IMQ)” value (IL-23 [8]; listed as positive control) was 1.57 fold. For the same compound, the “Histopathology (H&E): psoriatic features” value [9] was “ameliorated all of the above-mentioned parameters”, the “Fold difference in IL-17 levels (↓, vs. IMQ)” value (IL-17 [10]; listed as IMQ_BMV) was 1.43 ↓ fold and the “Fold difference in IL-17 levels (↓, vs. IMQ)” value (IL-17 [10]; listed as positive control) was 1.43 fold.
